Source: PMC5729604, “Dual inhibitors of hepatitis C virus and hepatocellular carcinoma: design, synthesis and docking studies” (Future Science OA, 2017)
Values after ≈ are worked out from the molar mass of the structure shown. Where two headings read alike, the source gives them in different places.

Key:
In vitro hemolytic assay = format: cell-based; conditions: 2% erythrocyte suspension (washed red blood cells); 2% erythrocyte suspension, 3 μl of 1 mg/ml compound in DMF per 240 μl well, 37°C 30 min, absorbance 405 nm; <5% considered nontoxic
Method: Compounds 5a-x and 6a-h were subjected to the in vitro hemolytic assay to identify those which cause hemolysis to red blood cells (RBCs). Consequently, these compounds would be toxic in vivo so they were excluded from further biological screening.
Blood samples (5 ml) were freshly collected into heparinized tubes and were centrifuged (1000 r.p.m. for 20 min) at room temperature. The plasma and buffy coat were removed by Pasteur pipette, and the collected erythrocytes were washed three-times using isotonic buffer solution (0.9% sodium chloride [Sigma-Aldrich, MO, USA]) by centrifugation (2500 r.p.m. for 10 min). A two percent erythrocyte suspension was prepared to be used in the assay.
A 1 mg/ml stock solution of each compound was prepared in DMF (Sigma-Aldrich). Compound wells were prepared by adding 3 μl of the compound solution to 117 μl isotonic buffer solution and 120 μl erythrocyte suspension. Compounds color blank wells were prepared by adding 3 μl compound to 237 μl isotonic buffer solution. Solvent (DMF) wells were prepared by adding 3 μl DMF to 117 μl isotonic buffer solution and 120 μl erythrocyte suspension. Positive control wells (representing 100% hemolysis) were prepared by adding 120 μl erythrocyte suspension to 120 μl distilled water, while negative control wells (representing 0% hemolysis) were prepared by adding 120 μl erythrocyte suspension to 120 μl isotonic buffer solution. Finally, blank wells contained only 240 μl isotonic buffer solution. Each set of samples was pipetted in triplicate. The microtiter plate was then shaken well on bench, incubated at 37°C for 30 min then centrifuged (2000 rpm for 5 min) at room temperature.
A fraction of the supernatant layer (150 μl) of each well was transferred to another 96-well microtiter plate. Erythrocyte hemolysis was determined by reading the absorbance (A) of liberated hemoglobin at 405 nm in the supernatant fraction compared with the 100% hemolysis of erythrocyte. The average value was calculated from triplicate assay: [drawing 2]

[1] = system: human HCC cell line HepG2; assay: cells; format: cell-based; conditions: for IC50: Homo sapiens, HepG2, 72 h, neutral red; for IC50 / (LD0) HepG2 / Safe doses (100% viability of HepG2) LD0: 72 h; for (LD0) HepG2 / Safe doses (100% viability of HepG2) LD0: human; for in vitro anticancer activity against HepG2, in words: IC50 <100 μg/ml potential, 100-1000 μg/ml moderate
Method: The safe compounds on RBCs (5a-g, 5i-l, 5p-r, 5v-w, 6b-g) were screened for their potential anticancer activity against human HCC cell line HepG2. HepG2 cells were exposed to the test compounds, then viability of cells was measured using neutral red uptake assay as described by Borenfreund and Puerner. This assay depends on the fact that neutral red dye can be incorporated into the lysosomes of living cells providing a quantitative assay to the cytotoxic effects. The results were interpreted to calculate both the concentration causing 50% cancer cell death (IC50) of each compound and the maximum safe concentration that cause 100% viability (LD0; to be used in the in vitro anti-HCV testing) using GraphPad InStat 3.0 software (Figure 5 & Supplementary Table 2).
HepG2 cells were routinely maintained as adherent cell cultures in RPMI-1640 medium (Lonza Group Ltd, Basel, Switzerland) supplemented with 10% fetal bovine serum (FBS; Lonza, IL, USA) at 37°C in a humidified air incubator containing 5% CO2. Cells were subcultured for 2 weeks before assay. Cell viability was assessed using trypan blue exclusion method.
HepG2 cells were washed twice in RPMI-1640 medium supplemented with 200 μM L-glutamine (Lonza) and […] 4-(2-hydroxyethyl)-1-piperazineethanesulfonic acid (HEPES) buffer (Lonza). The cells were suspended at 3 × 10^4 cells/ml in RPMI culture medium (RPMI supplemented medium and 10% FBS). The appropriate number of cells was chosen to be 3 × 10^3 cells/well (100 μl of the prepared suspension), and the cells were left to adhere on the polystyrene 96-well plates in an incubator at 37°C, 5% CO2 and 95% humidity for 24 h. The cells were washed once using RPMI supplemented medium.
A 2 mg/ml stock solution of each compound was prepared in DMF and filtered using a 0.2 μM syringe filter. The desired concentrations (20, 10, 5, 2.5 and 1.25 μg/ml) were prepared using serial dilution in a 96-well plate. Compound wells were prepared by adding 100 μl of the previously prepared concentrations to a 100 μl of HepG2 cells suspension. Parallel concentrations of the solvent were prepared to be used as controls. 5-Fluorouracil was used as a positive control. Control wells were prepared by adding 100 μl culture media to a 100 μl of HepG2 cells suspension. Blank wells contained 200 μl of culture media only (without cells or compound solution). Each set of samples was pipetted in duplicate. The plate was gently shaken, then incubated at 37°C, 5% CO2 for 72 h.
After incubation, the plate was centrifuged (2000 r.p.m. for 10 min). The media were discarded by inversion over paper towels. A working solution (100 μg/ml) of neutral red stain (Bio Basic Inc, Markham, Canada) was prepared, and 100 μl of this solution was added to each well, then the plate was gently shaken. The plate was incubated at 37°C in humidified 5% CO2 for 3 h, and then centrifuged (2000 r.p.m. for 10 min). Excess dyes were discarded, and the cells were fixed with 100 μl fixing solution (0.5% formalin with 1% calcium chloride [Sigma-Aldrich]) for 1 min. Cells were destained in 100 μl destaining solution (50% ethanol with 1% glacial acetic acid [Sigma-Aldrich]) for 5 min by shaking. The stain intensity was assayed using automated microplate reader spectrophotometer adjusted at 490 nm. Surviving cell fraction was calculated according to the following equation: [drawing 3]
The results were interpreted to calculate both the concentration causing 50% cancer cell death (IC50) of each compound and the maximum safe concentration that cause 100% viability (LD0; to be used in the in vitro anti-HCV testing) using GraphPad InStat 3.0 software.

[2] = Supplementary Table 2, read-out: Anticancer (HepG2) IC50
[3] = Table 1, read-out: IC50 (HepG2)

SMILES	hemolysis at 30 min, 12.5 µg/ml (In vitro hemolytic assay) [%]	IC50 [1, 2] [µg/mL]	(LD0) HepG2 [1] [µg/mL]	Safe doses (100% viability of HepG2) LD0 [1] [µg/mL]	in vitro anticancer activity against HepG2, in words [1]	IC50 [1, 3] [µg/mL]	Selectivity index ([1]; LD50 on PBMC / IC50 on HepG2)	Selectivity index ([1]; LD50 on normal cells / IC50 on cancer cells, larger than three = highly selective)
CC(=NN=C1SC(=Cc2cn(-c3ccccc3)nc2-c2ccccc2)C(=O)N1c1ccccc1)c1cc2ccccc2o1 [Compound 5a, 2-[1-(Benzofuran-2-yl)ethylidenehydrazono]-5-[(1,3-Diphenyl-1H-pyrazol-4-yl)methylene]-3-phenylthiazolidin-4-one]	3.27	173 (≈ 298 µM)	10.15	10.15	–	–	–	–
CC(=NN=C1SC(=Cc2cn(-c3ccccc3)nc2-c2ccc(Cl)cc2)C(=O)N1c1ccccc1)c1cc2ccccc2o1 [Compound 5b, 2-[1-(Benzofuran-2-yl)ethylidenehydrazono]-5-{[3-(4-chlorophenyl)-1-phenyl-1H-pyrazol-4-yl]methylene}-3-phenylthiazolidin-4-one]	4.22	120 (≈ 195 µM)	23.02	23.02	–	–	–	–
COc1ccc(-c2nn(-c3ccccc3)cc2C=C2SC(=NN=C(C)c3cc4ccccc4o3)N(c3ccccc3)C2=O)cc1 [Compound 5c, 2-[1-(Benzofuran-2-yl)ethylidenehydrazono]-5-{[3-(4-methoxyphenyl)-1-phenyl-1H-pyrazol-4-yl]methylene}-3-phenylthiazolidin-4-one]	1.65	143 (≈ 235 µM)	5.88	5.88	–	–	–	–
CC(=NN=C1SC(=Cc2cn(-c3ccccc3)nc2-c2ccccc2)C(=O)N1c1ccc(Cl)cc1)c1cc2ccccc2o1 [Compound 5d, 2-[1-(Benzofuran-2-yl)ethylidenehydrazono]-5-[(1,3-Diphenyl-1H-pyrazol-4-yl)methylene]-3-(4-chlorophenyl)thiazolidin-4-one]	1.05	1140 (≈ 1850 µM)	163.55	163.55	very weak anticancer activity	–	–	–
CC(=NN=C1SC(=Cc2cn(-c3ccccc3)nc2-c2ccc(Cl)cc2)C(=O)N1c1ccc(Cl)cc1)c1cc2ccccc2o1 [Compound 5e, 2-[1-(Benzofuran-2-yl)ethylidenehydrazono]-5-{[3-(4-chlorophenyl)-1-phenyl-1H-pyrazol-4-yl]methylene}-3-(4-chlorophenyl)thiazolidin-4-one]	3.82	318 (≈ 490 µM)	31.12	31.12	–	–	–	–
COc1ccc(-c2nn(-c3ccccc3)cc2C=C2SC(=NN=C(C)c3cc4ccccc4o3)N(c3ccc(Cl)cc3)C2=O)cc1 [Compound 5f, 2-[1-(Benzofuran-2-yl)ethylidenehydrazono]-5-{[3-(4-methoxyphenyl)-1-phenyl-1H-pyrazol-4-yl]methylene}-3-(4-chlorophenyl)thiazolidin-4-one]	4.59	–	10.39	10.39	potential in vitro anticancer activity	69.4 (≈ 108 µM)	3.74	larger than three
COc1ccc(N2C(=O)C(=Cc3cn(-c4ccccc4)nc3-c3ccccc3)SC2=NN=C(C)c2cc3ccccc3o2)cc1 [Compound 5g, 2-[1-(Benzofuran-2-yl)ethylidenehydrazono]-5-[(1,3-Diphenyl-1H-pyrazol-4-yl)methylene]-3-(4-methoxyphenyl)thiazolidin-4-one]	2.03	193 (≈ 316 µM)	66.72	66.72	–	–	–	–
COc1ccc(-c2nn(-c3ccccc3)cc2C=C2SC(=NN=C(C)c3cc4ccccc4o3)N(c3ccc(OC)cc3)C2=O)cc1 [Compound 5i, 2-[1-(Benzofuran-2-yl)ethylidenehydrazono]-5-{[3-(4-methoxyphenyl)-1-phenyl-1H-pyrazol-4-yl]methylene}-3-(4-methoxyphenyl)thiazolidin-4-one]	2.97	120 (≈ 188 µM)	0.05	0.05	–	–	–	–
CC(=NN=C1SC(=Cc2cn(-c3ccccc3)nc2-c2ccccc2)C(=O)N1C1CCCCC1)c1cc2ccccc2o1 [Compound 5j, 2-[1-(Benzofuran-2-yl)ethylidenehydrazono]-5-[(1,3-Diphenyl-1H-pyrazol-4-yl)methylene]-3-cyclohexylthiazolidin-4-one]	3.01	–	5.08	5.08	potential in vitro anticancer activity	63.8 (≈ 109 µM)	2.10	–
CC(=NN=C1SC(=Cc2cn(-c3ccccc3)nc2-c2ccc(Cl)cc2)C(=O)N1C1CCCCC1)c1cc2ccccc2o1 [Compound 5k, 2-[1-(Benzofuran-2-yl)ethylidenehydrazono]-5-{[3-(4-chlorophenyl)-1-phenyl-1H-pyrazol-4-yl]methylene}-3-cyclohexylthiazolidin-4-one]	4.44	150 (≈ 242 µM)	56.74	56.74	–	–	–	–
COc1ccc(-c2nn(-c3ccccc3)cc2C=C2SC(=NN=C(C)c3cc4ccccc4o3)N(C3CCCCC3)C2=O)cc1 [Compound 5l, 2-[1-(Benzofuran-2-yl)ethylidenehydrazono]-5-{[3-(4-methoxyphenyl)-1-phenyl-1H-pyrazol-4-yl]methylene}-3-cyclohexylthiazolidin-4-one]	2.89	–	5.11	5.11	potential in vitro anticancer activity	82.1 (≈ 133 µM)	0.57	–
